This note sets out measurements from PMC2806265, “Divergence of allosteric effects of rapacuronium on binding and function of muscarinic receptors” (BMC Pharmacology, 2009).

This assay addresses T1, M5 muscarinic receptor (Homo sapiens, UniProt P08912).
T1 sequence (P08912 1-532): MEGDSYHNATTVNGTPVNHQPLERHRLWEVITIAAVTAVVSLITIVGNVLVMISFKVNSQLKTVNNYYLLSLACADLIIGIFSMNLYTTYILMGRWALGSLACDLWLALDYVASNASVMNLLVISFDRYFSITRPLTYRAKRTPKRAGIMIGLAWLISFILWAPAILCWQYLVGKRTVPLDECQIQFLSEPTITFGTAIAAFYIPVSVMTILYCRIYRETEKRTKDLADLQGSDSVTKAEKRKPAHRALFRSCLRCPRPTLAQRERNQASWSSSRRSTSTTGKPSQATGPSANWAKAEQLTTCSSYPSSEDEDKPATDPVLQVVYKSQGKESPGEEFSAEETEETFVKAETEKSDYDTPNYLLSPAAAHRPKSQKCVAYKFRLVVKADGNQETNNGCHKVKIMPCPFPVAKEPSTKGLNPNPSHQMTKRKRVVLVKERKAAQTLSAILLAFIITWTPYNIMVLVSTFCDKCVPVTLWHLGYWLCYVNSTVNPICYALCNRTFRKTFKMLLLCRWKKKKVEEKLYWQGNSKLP
Put plainly: Effect of rapacuronium on high-affinity 20 nM [3H]ACh binding. Details: host or cells: CHO cells, stably transfected; membranes. From the text: Cooperativity factor greater than 1 denotes negative cooperativity and less than 1 positive cooperativity. Due to its log-normal error distribution factors of cooperativity are expressed as negative logarithms (pα) through the manuscript so negative values denotes negative cooperativity and positive value denotes positive cooperativity.

As to `C=CC[N+]1([C@H]2C[C@H]3[C@@H]4CC[C@H]5C[C@H](OC(C)=O)[C@@H](N6CCCCC6)C[C@]5(C)[C@H]4CC[C@]3(C)[C@H]2OC(=O)CC)CCCCC1` [rapacuronium], the “pα, cooperativity with [^3H]ACh high affinity binding” value (M5, negative value = negative cooperativity) is reported as -1.34 ± 0.07. Also, the Kd (read-out: pKA of rapacuronium (converted)) is 12 µM.
